From ChEMBL document CHEMBL4602612, “Design, synthesis and biological evaluation of mogrol derivatives as a novel class of AMPKα2β1γ1 activators” (Bioorg Med Chem Lett, 2020) come the findings set out here.

The target in one assay is AMPK alpha2/beta1/gamma1 (Homo sapiens) (UniProt P54646+P54619+Q9Y478). The experiment in a line: Potency index, ratio of mogrol EC50 to test compound EC50 for allosteric activation of AMPK alpha2/beta1/gamma1 in human HepG2 cells by scintillation proximity assay. The format is cell-based. (In general: In a scintillation proximity assay essentially only radioactivity close to the scintillant gives light.)
AMPK alpha2/beta1/gamma1 (Homo sapiens), sequence (P54619 whole entry partner): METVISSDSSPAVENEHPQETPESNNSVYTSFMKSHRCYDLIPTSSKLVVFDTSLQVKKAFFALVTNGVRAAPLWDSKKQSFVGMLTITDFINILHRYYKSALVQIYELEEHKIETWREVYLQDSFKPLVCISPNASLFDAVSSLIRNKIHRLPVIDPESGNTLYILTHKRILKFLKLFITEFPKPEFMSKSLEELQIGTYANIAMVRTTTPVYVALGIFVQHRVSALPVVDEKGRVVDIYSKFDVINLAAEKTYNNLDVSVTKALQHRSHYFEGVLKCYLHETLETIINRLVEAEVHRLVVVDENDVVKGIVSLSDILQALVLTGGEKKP
AMPK alpha2/beta1/gamma1 (Homo sapiens), sequence (P54646 whole entry): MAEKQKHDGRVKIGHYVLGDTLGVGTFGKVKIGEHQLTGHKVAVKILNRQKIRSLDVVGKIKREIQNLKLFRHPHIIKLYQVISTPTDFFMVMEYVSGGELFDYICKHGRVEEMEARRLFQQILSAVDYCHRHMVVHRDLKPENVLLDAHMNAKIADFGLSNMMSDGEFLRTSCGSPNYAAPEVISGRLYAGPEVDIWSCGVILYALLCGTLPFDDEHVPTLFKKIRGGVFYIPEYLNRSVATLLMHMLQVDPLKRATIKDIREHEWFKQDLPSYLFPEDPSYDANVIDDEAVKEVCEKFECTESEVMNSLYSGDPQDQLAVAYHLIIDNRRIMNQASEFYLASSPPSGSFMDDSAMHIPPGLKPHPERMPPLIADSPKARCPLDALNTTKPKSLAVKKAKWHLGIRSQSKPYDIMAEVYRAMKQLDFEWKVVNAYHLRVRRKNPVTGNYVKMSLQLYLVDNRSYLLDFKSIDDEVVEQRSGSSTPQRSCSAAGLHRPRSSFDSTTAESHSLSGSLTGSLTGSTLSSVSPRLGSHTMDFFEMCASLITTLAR
AMPK alpha2/beta1/gamma1 (Homo sapiens), sequence (Q9Y478 2-270 partner limits assumed): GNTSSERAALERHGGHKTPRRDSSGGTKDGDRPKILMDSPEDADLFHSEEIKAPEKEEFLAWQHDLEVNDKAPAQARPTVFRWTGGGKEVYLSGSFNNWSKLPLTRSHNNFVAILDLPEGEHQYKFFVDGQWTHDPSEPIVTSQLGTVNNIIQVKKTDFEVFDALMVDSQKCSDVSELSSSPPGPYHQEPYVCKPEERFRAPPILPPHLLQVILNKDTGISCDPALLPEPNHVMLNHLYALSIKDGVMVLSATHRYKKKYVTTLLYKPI
As to `CCCNCCC[C@@H](C)[C@H]1CC[C@@]2(C)[C@@H]3CC=C4[C@@H](CC[C@H](O)C4(C)C)[C@]3(C)[C@H](O)C[C@]12C`, the Ratio EC50 turned out to be 20. Still for that read-out and setting: under `CC(C)NCCC[C@@H](C)[C@H]1CC[C@@]2(C)[C@@H]3CC=C4[C@@H](CC[C@H](O)C4(C)C)[C@]3(C)[C@H](O)C[C@]12C` stands 20.

The next assay deals with AMPK alpha2/beta1/gamma1 (Homo sapiens, UniProt P54619+P54646+Q9Y478). The experiment in a line: Allosteric activation of AMPK alpha2/beta1/gamma1 in human HepG2 cells by scintillation proximity assay. The format is cell-based.
AMPK alpha2/beta1/gamma1, sequence (P54646 whole entry): as the sequence (P54646 whole entry) above
AMPK alpha2/beta1/gamma1, sequence (P54619 whole entry): as the sequence (P54619 whole entry partner) above
AMPK alpha2/beta1/gamma1, sequence (Q9Y478 whole entry): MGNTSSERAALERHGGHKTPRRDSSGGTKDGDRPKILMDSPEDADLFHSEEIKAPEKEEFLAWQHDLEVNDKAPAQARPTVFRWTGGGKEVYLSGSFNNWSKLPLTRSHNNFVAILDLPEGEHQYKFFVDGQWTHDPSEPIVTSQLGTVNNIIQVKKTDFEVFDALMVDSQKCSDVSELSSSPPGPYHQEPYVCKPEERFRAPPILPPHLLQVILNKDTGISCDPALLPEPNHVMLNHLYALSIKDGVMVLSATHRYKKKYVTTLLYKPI
As to `CNCCC[C@@H](C)[C@H]1CC[C@@]2(C)[C@@H]3CC=C4[C@@H](CC[C@H](O)C4(C)C)[C@]3(C)[C@H](O)C[C@]12C`, the EC50 amounted to 7.4 µM.

Compound `C[C@H](CCCNCCc1ccccc1)[C@H]1CC[C@@]2(C)[C@@H]3CC=C4[C@@H](CC[C@H](O)C4(C)C)[C@]3(C)[C@H](O)C[C@]12C` showed an EC50 of 2 µM.

In turn, `COc1ccc(NCCC[C@@H](C)[C@H]2CC[C@@]3(C)[C@@H]4CC=C5[C@@H](CC[C@H](O)C5(C)C)[C@]4(C)[C@H](O)C[C@]23C)cc1` came in with an EC50 of 4.7 µM. This EC50 lies about 2.4-fold higher than the previous one. As for `C[C@H](NCCC[C@@H](C)[C@H]1CC[C@@]2(C)[C@@H]3CC=C4[C@@H](CC[C@H](O)C4(C)C)[C@]3(C)[C@H](O)C[C@]12C)c1ccccc1`, a half-maximal response (EC50) required 1.7 µM. Compared with the last compound, the EC50 is about 2.8-fold lower. On the same count and under the same terms, under `C[C@H](CCCNC(C)(C)C)[C@H]1CC[C@@]2(C)[C@@H]3CC=C4[C@@H](CC[C@H](O)C4(C)C)[C@]3(C)[C@H](O)C[C@]12C` stands 1.4 µM. The compound `C[C@H](CCCNC1CC1)[C@H]1CC[C@@]2(C)[C@@H]3CC=C4[C@@H](CC[C@H](O)C4(C)C)[C@]3(C)[C@H](O)C[C@]12C` came in with an EC50 of 4.1 µM. On the same count and under the same terms, under `C[C@H](CCCNCCCO)[C@H]1CC[C@@]2(C)[C@@H]3CC=C4[C@@H](CC[C@H](O)C4(C)C)[C@]3(C)[C@H](O)C[C@]12C` stands 1.4 µM. On the same count and under the same terms, to `C[C@H](CCCNCCCn1ccnc1)[C@H]1CC[C@@]2(C)[C@@H]3CC=C4[C@@H](CC[C@H](O)C4(C)C)[C@]3(C)[C@H](O)C[C@]12C` belongs 3.5 µM.

The compound `CCNCCC[C@@H](C)[C@H]1CC[C@@]2(C)[C@@H]3CC=C4[C@@H](CC[C@H](O)C4(C)C)[C@]3(C)[C@H](O)C[C@]12C` gave an EC50 of 5 µM. On the same count and under the same terms, under `C[C@H](CCCNCc1cccnc1)[C@H]1CC[C@@]2(C)[C@@H]3CC=C4[C@@H](CC[C@H](O)C4(C)C)[C@]3(C)[C@H](O)C[C@]12C` stands 0.7 µM. On the same count and under the same terms, under `COc1ccc(CCNCCC[C@@H](C)[C@H]2CC[C@@]3(C)[C@@H]4CC=C5[C@@H](CC[C@H](O)C5(C)C)[C@]4(C)[C@H](O)C[C@]23C)cc1OC` stands 0.5 µM.

In turn, `C[C@H](CCCNCc1ccncc1)[C@H]1CC[C@@]2(C)[C@@H]3CC=C4[C@@H](CC[C@H](O)C4(C)C)[C@]3(C)[C@H](O)C[C@]12C` came in with an EC50 of 0.5 µM. In other words, the sub-micromolar range.

Consider `C[C@H](CCCNCCN1CCNCC1)[C@H]1CC[C@@]2(C)[C@@H]3CC=C4[C@@H](CC[C@H](O)C4(C)C)[C@]3(C)[C@H](O)C[C@]12C`, for which the EC50 was 0.5 µM. Still for that read-out and setting: to `CCCNCCC[C@@H](C)[C@H]1CC[C@@]2(C)[C@@H]3CC=C4[C@@H](CC[C@H](O)C4(C)C)[C@]3(C)[C@H](O)C[C@]12C` belongs 0.15 µM. On the same count and under the same terms, under `C[C@H](CCCNCc1ccc(Cl)cc1)[C@H]1CC[C@@]2(C)[C@@H]3CC=C4[C@@H](CC[C@H](O)C4(C)C)[C@]3(C)[C@H](O)C[C@]12C` stands 0.6 µM. On the same count and under the same terms, under `C[C@H](CCCNCc1ccc(F)cc1)[C@H]1CC[C@@]2(C)[C@@H]3CC=C4[C@@H](CC[C@H](O)C4(C)C)[C@]3(C)[C@H](O)C[C@]12C` stands 0.7 µM; under `C[C@H](CC[C@@H](O)C(C)(C)O)[C@H]1CC[C@@]2(C)[C@@H]3CC=C4[C@@H](CC[C@H](O)C4(C)C)[C@]3(C)[C@H](O)C[C@]12C` [MOGROL], 3 µM. `COc1ccc(CNCCC[C@@H](C)[C@H]2CC[C@@]3(C)[C@@H]4CC=C5[C@@H](CC[C@H](O)C5(C)C)[C@]4(C)[C@H](O)C[C@]23C)cc1OC` displayed an EC50 of 0.2 µM. Still for that read-out and setting: under `Nc1ncnc2c1ncn2[C@@H]1O[C@H](COP(=O)(O)O)[C@@H](O)[C@H]1O` [ADENOSINE PHOSPHATE] stands 1.4 µM.

For `CC(C)NCCC[C@@H](C)[C@H]1CC[C@@]2(C)[C@@H]3CC=C4[C@@H](CC[C@H](O)C4(C)C)[C@]3(C)[C@H](O)C[C@]12C`, a half-maximal response (EC50) required 0.14 µM. This EC50 is about 10-fold lower than that of the compound before. Still for that read-out and setting: under `C[C@H](CCCNCc1ccccn1)[C@H]1CC[C@@]2(C)[C@@H]3CC=C4[C@@H](CC[C@H](O)C4(C)C)[C@]3(C)[C@H](O)C[C@]12C` stands 1.6 µM; under `C[C@H](CCCNCCc1ccc([N+](=O)[O-])cc1)[C@H]1CC[C@@]2(C)[C@@H]3CC=C4[C@@H](CC[C@H](O)C4(C)C)[C@]3(C)[C@H](O)C[C@]12C`, 1.7 µM.

In turn, `C[C@H](CCCNCc1ccccc1)[C@H]1CC[C@@]2(C)[C@@H]3CC=C4[C@@H](CC[C@H](O)C4(C)C)[C@]3(C)[C@H](O)C[C@]12C` came in with an EC50 of 1.5 µM.

One may read the EC50 as the concentration giving half of the maximal effect.
